A short description of data set [1]: acid resistance. Type of data set: physicochemical.
In data set [2] the test system is Streptococcus pyogenes. Briefly: in vitro agar plate filter paper disc test, zones of inhibition: Streptococcus pyogenes. Type of data set: cell-based. To be noted: read-out: Minimal inhibiting concentration, Streptococcus pyogenes. The procedure: (§1) Specific nutrient agar plates are completely innoculated with the various test organisms. Filter paper discs are placed on the surface of the agar and wetted with 0.1 ml. of a solution containing 10, 100 and 1,000 micrograms of the test compound. Zones of inhibition of microbial growth are used to indicate the antibacterial activity of the test compound against the various test organisms employed.
(§2) The following table summarizes the in vitro activity of the following representative compounds: 6-[2-(4-oxo-1-pyridinyl)acetylamino]penicillanicacid, sodium salt (1), 7-[2-(4-oxo-1-pyridinyl)acetylamino]desacetoxycephalosporanic acid (2), 6-[2-(3,5-diiodo-4-oxo-1-pyridinyl)acetylamino]penicillanic acid, sodium salt (3), 7-[2-(2,6-dimethyl-4-oxo-1-pyridinyl)acetylamino]desacetoxycephalosporanicacid, sodium salt (4), 7-[2-(4-oxo-1-pyridinyl)acetylamino]cephalosporanicacid, sodium salt (5) and 6-[2-(4-oxo-1-quinolinyl)acetylamino]penicillanic acid, sodium salt (6).

Data set [3] deals with Salmonella schottmuelleri. Briefly: in vitro agar plate filter paper disc test, zones of inhibition: Salmonella schottmuelleri. In kind it is cell-based. Particulars: read-out: Minimal inhibiting concentration, Salmonella schottmuelleri. The procedure:
as §1, §2

In data set [4] the test system is Staphylococcus aureus. Briefly: in vitro agar plate filter paper disc test, zones of inhibition: Staphylococcus aureus. Type of data set: cell-based. To be noted: read-out: Minimal inhibiting concentration, Staphylococcus aureus. The procedure: as §1, §2
The subject of data set [5] is (Penicillinase Producing) Staphylococcus aureus. Briefly: in vitro agar plate filter paper disc test, zones of inhibition: penicillinase producing Staphylococcus aureus. In kind it is cell-based. To be noted: read-out: Minimal inhibiting concentration, (Penicillinase Producing) Staphylococcus aureus. As to the method:
as §1, §2

Setting [6] is: in vitro, 0.1 ml. of a solution containing 10, 100 and 1,000 micrograms on filter paper discs.
Where [7] appears, read: in vitro, penicillinase producing strain, 0.1 ml. of a solution containing 10, 100 and 1,000 micrograms on filter paper discs.

In brackets after ≈: the same amount, converted by molar mass. Counter-ions that a name gives are not always drawn. Like-named read-outs stand apart in the source and are kept apart here. Bounds are passed on as bounds.

Turning to `CC1(C)S[C@@H]2C(NC(=O)Cn3ccc(=O)c4ccccc43)C(=O)N2[C@H]1C(=O)[O-].[Na+]` (stereo partly drawn) [(6), 6-[2-(4-oxo-1-quinolinyl)acetylamino]penicillanic acid, sodium salt], the “Acid Resistance” value in data set [1] was “Yes”. In addition, the MIC in data set [2] is 1000 µg/mL; in data set [3], 100 µg/mL; in data set [4], 10 µg/mL; in data set [5], 1000 µg/mL.

Turning to `CC1=C(C(=O)O)N2C(=O)C(NC(=O)Cn3c(C)cc(=O)cc3C)C2SC1` (stereo not drawn) [(4), 7-[2-(2,6-dimethyl-4-oxo-1-pyridinyl)acetylamino]desacetoxycephalosporanicacid, sodium salt], the “Acid Resistance” value in data set [1] is recorded as “Yes”. The MIC in data set [2] (setting [6]) is over 1000 µg/mL; in data set [3] (setting [6]) it was over 1000 µg/mL; in data set [4] (setting [6]), 1000 µg/mL; in data set [5] (setting [7]) it was over 1000 µg/mL.

Consider `CC1(C)S[C@@H]2C(NC(=O)Cn3ccc(=O)cc3)C(=O)N2[C@H]1C(=O)[O-].[Na+]` (stereo partly drawn) [(1), 6-[2-(4-oxo-1-pyridinyl)acetylamino]penicillanicacid, sodium salt], for which, in data set [1], the “Acid Resistance” value is “Yes”. Besides, the MIC in data set [2] turned out to be 1000 µg/mL; in data set [3], 100 µg/mL; in data set [4] it was 10 µg/mL; in data set [5], 1000 µg/mL.

`CC(=O)OCC1=C(C(=O)O)N2C(=O)C(NC(=O)Cn3ccc(=O)cc3)C2SC1` (stereo not drawn) [(5), 7-[2-(4-oxo-1-pyridinyl)acetylamino]cephalosporanicacid, sodium salt]: the “Acid Resistance” value in data set [1] was “Yes”. Also, the MIC in data set [2] (setting [6]) came out at 100 µg/mL; in data set [3] (setting [6]), 100 µg/mL; in data set [4] (setting [6]) it was 10 µg/mL; in data set [5] (setting [7]) it was 1000 µg/mL.

Turning to `CC1(C)S[C@@H]2C(NC(=O)Cn3cc(I)c(=O)c(I)c3)C(=O)N2[C@H]1C(=O)[O-].[Na+]` (stereo partly drawn) [(3), 6-[2-(3,5-diiodo-4-oxo-1-pyridinyl)acetylamino]penicillanic acid, sodium salt], in data set [1], the “Acid Resistance” value is given as “Yes”. Besides, the MIC was over 1000 µg/mL in data set [2], 100 µg/mL in data set [3], 10 µg/mL in data set [4] and over 1000 µg/mL in data set [5].

`CC1=C(C(=O)O)N2C(=O)C(NC(=O)Cn3ccc(=O)cc3)C2SC1` (stereo not drawn) [(2), 7-[2-(4-oxo-1-pyridinyl)acetylamino]desacetoxycephalosporanic acid]: the “Acid Resistance” value in data set [1] is on record as “Yes”. Also, the MIC in data set [2] (setting [6]) is 1000 µg/mL (≈ 2860 µM); in data set [3] (setting [6]) it was over 1000 µg/mL; in data set [4] (setting [6]) it was 1000 µg/mL (≈ 2860 µM); in data set [5] (setting [7]) it was over 1000 µg/mL.

These data come from patent US3989687A, “4-Oxo-1-pyridinyl penicillin derivatives” (Richardson-Merrell Inc., priority 1975, dated 1976).
